Holding throughout (assay): growth of human tumour cells (NCI), 48 h
In assay [1] the test system is HCT-15 colon.
Assay [2] deals with SK-MEL-28 melanoma.
Assay [3] relates to NCI-H522 lung.
Assay [4] has as its system OVCAR-4 ovarian.
Assay [5] concerns SK-OV-3 ovarian.
Assay [6] relates to RXF 393 renal.
In assay [7] the test system is OVCAR-8 ovarian.
Assay [8] concerns HOP-92 NSCLC.
The test system of assay [9] is SK-MEL-5 melanoma.
Assay [10] concerns SF-295 CNS.

The structures appear in SMILES notation.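 Where inhibition never reached the appropriate level, the endpoint shown equals the highest concentration tested. Otherwise, values were interpolated linearly from a five-concentration, 48-hour dose response in 96-well plates. At the TGI there is no net growth.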 Where only a bound is given, the exact number is not on record here.

For `C#CC(O)/C=C/C(O)CCCC(O)CC#CC(O)C#CC(O)CCCC(O)/C=C/CCCC(=O)CCCCCCCCCCCCCCCC(O)C(O)C#CC(=O)O` (stereo not given), the TGI was more than 50 µM in assay [1]; more than 50 µM in [2]; 17.5 µM in assay [3]; 28.2 µM in assay [4]; more than 50 µM in assay [5]; more than 50 µM in assay [6]. Further, the TGI in assay [7], in assay [8], in [9] and in assay [10] was more than 50 µM in each case.

With `O=C1c2ccccc2-c2nc(/C=C/c3ccccc3)cc3c2c1nc1ccccc13`, the TGI in assay [1] was 40.8 µM; in [2], 44.6 µM; in assay [3], 30.2 µM; in assay [4] it was more than 100 µM; in [5], more than 100 µM; in assay [6] it was more than 100 µM. Also, the TGI was more than 100 µM in assay [7], more than 100 µM in [8], 8.8 µM in assay [9] and more than 100 µM in assay [10].

Turning to `O=c1cc(N=Nc2ccc(Cl)cc2)[nH]c(=O)[nH]1`, the TGI in [1] is 4.43 µM; in [2] it was 13.5 µM; in assay [3], 3.63 µM; in assay [4], 9.03 µM; in assay [5], 22 µM; in assay [6], 10.2 µM. Moreover, the TGI amounted to 12 µM in assay [7], 5.48 µM in assay [8], 21.4 µM in assay [9] and 22.3 µM in assay [10].

Turning to `C=CCCCCCCCCCOC1C=CC(OC(C)=O)C(COC(C)=O)O1` (stereo not given), the TGI in assay [1], in assay [2], in assay [3], in assay [4], in [5] and in assay [6] was more than 100 µM each time. In addition, the TGI was 43.4 µM in assay [7], more than 100 µM in assay [8], more than 100 µM in assay [9] and more than 100 µM in assay [10].

Take `CCN(CC)CCCC(C)NC(=O)c1ccc2c(c1)C(=O)c1ccccc1C2=O` (stereo not given): the TGI in assay [1] is 40 µM; in assay [2], 29.8 µM; in assay [3], 37.4 µM; in assay [4], 30.4 µM; in [5], more than 93.6 µM; in assay [6] it was 42.8 µM. Besides, the TGI in assay [7] was 66 µM; in [8], 63.7 µM; in assay [9] it was 28.4 µM; in assay [10], 45.8 µM.

As for `CCCCCCC(C)OC(=O)/C=C(\CC(=O)OC(C)CCCCCC)C(=O)OC(C)CCCCCC` (stereo not given), the TGI in assay [1], in assay [2], in assay [3], in [4], in assay [5] and in [6] was more than 100 µM in each case. Moreover, the TGI in assay [7], in assay [8], in [9] and in assay [10] was more than 100 µM each time.

Take `Oc1ccc(O)c(CNc2ccccc2)c1`: the TGI is 42.2 µM in assay [1]; more than 100 µM in [2]; 6.65 µM in assay [3]; 28.6 µM in assay [4]; 38.9 µM in assay [5]; 19.5 µM in assay [6]. For the same compound, the TGI was 36.4 µM in [7], 20.8 µM in [8], 33.9 µM in [9] and 29.7 µM in [10].

In the case of `CCOC(=O)C(C(=O)OCC)=C1NC2(c3ccccc3Nc3ccc(C)cc32)C(C(=O)OC)S1` (stereo not given), the TGI is more than 100 µM in [1]; more than 100 µM in assay [2]; more than 100 µM in assay [3]; more than 100 µM in assay [4]; more than 100 µM in assay [5]; 70.6 µM in [6]. In addition, the TGI in assay [7] was more than 100 µM; in assay [8], 44.4 µM; in [9], 66.9 µM; in assay [10], more than 100 µM.

As for `Cc1ccc(S(=O)(=O)N2CCNCCN(S(=O)(=O)c3ccc(C)cc3)CCN(S(=O)(=O)c3ccc(C)cc3)CC2)cc1`, the TGI in assay [1], in assay [2], in [3], in [4], in assay [5] and in assay [6] was more than 100 µM each time. Moreover, the TGI in [7], in assay [8], in assay [9] and in assay [10] was more than 100 µM throughout.

On to `CCN(CC)CCCOc1cc2c(cc1OC)C(=O)N1CCC[C@H]1C=N2`, for which the TGI in assay [1] was more than 100 µM; in [2], 45.9 µM; in assay [3], 54 µM; in assay [4], more than 100 µM; in assay [5] it was more than 100 µM; in [6] it was 60 µM. Besides, the TGI in assay [7] was more than 100 µM; in assay [8], 70.9 µM; in [9], 63.7 µM; in [10], 75.5 µM.

As for `CCOC(=O)Cn1c(=O)c2cc(-c3ccccc3)cc3c(Cl)nc4c(OC)c(OC)cc1c4c32`, the TGI in assay [1] was 32.2 µM; in assay [2], 55.4 µM; in [3], 39.4 µM; in [4] it was more than 77.1 µM; in [5], more than 100 µM; in assay [6], 30.7 µM. Moreover, the TGI is 44.4 µM in assay [7], 54.6 µM in [8], more than 59.9 µM in assay [9] and more than 100 µM in assay [10].

(Values after PubChem BioAssay (NCI).)
